From PubChem BioAssay (NCI)
Values joined by “and” are separate entries in the source; they are usually repeats but may differ in a detail not shown here. Equal values may be shown once.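 Five concentrations, 48 hours, 96-well plates. Here, GI50 denotes the concentration required for 50% inhibition of growth. Definition used: TGI = concentration required for complete inhibition of growth.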

How the values were obtained:
Assay in all cases: NCI-60 cell line screen, 48 h
COLO 205 colon = tested on: COLO 205 colon
EKVX NSCLC = tested on: EKVX NSCLC
LOX IMVI melanoma = tested on: LOX IMVI melanoma
MALME-3M melanoma = tested on: MALME-3M melanoma
MOLT-4 leukemia = tested on: MOLT-4 leukemia
NCI-H226 lung = tested on: NCI-H226 lung
OVCAR-8 ovarian = tested on: OVCAR-8 ovarian
RPMI-8226 leukemia = tested on: RPMI-8226 leukemia
SF-268 CNS = tested on: SF-268 CNS
UACC-62 melanoma = tested on: UACC-62 melanoma

Compound | GI50 (COLO 205 colon) | TGI (COLO 205 colon) | GI50 (EKVX NSCLC) | TGI (EKVX NSCLC) | GI50 (LOX IMVI melanoma) | TGI (LOX IMVI melanoma) | GI50 (MALME-3M melanoma) | TGI (MALME-3M melanoma) | GI50 (MOLT-4 leukemia) | TGI (MOLT-4 leukemia) | GI50 (NCI-H226 lung) | TGI (NCI-H226 lung) | GI50 (OVCAR-8 ovarian) | TGI (OVCAR-8 ovarian) | GI50 (RPMI-8226 leukemia) | TGI (RPMI-8226 leukemia) | GI50 (SF-268 CNS) | TGI (SF-268 CNS) | GI50 (UACC-62 melanoma) | TGI (UACC-62 melanoma)
Cc1cc(N2CCN(C)CC2)nc(N(CCNc2ccnc3cc(Cl)ccc23)Cc2ccco2)n1 | 1.88 µM | 5.18 µM | 5.58 µM | 19.7 µM | 1.77 µM | 3.56 µM | 1.94 µM | 3.71 µM | 2.8 µM | 10.9 µM | 19.6 µM | 37.9 µM | 5.33 µM | 19.8 µM | 2.18 µM | 5.72 µM | 5.82 µM | 20.3 µM | 2.02 µM | 4.01 µM
Nc1nc2c(c(=O)[nH]1)N=C(COP(=O)(O)OP(=O)(O)O)CN2 |  | > 100 µM |  | > 100 µM |  | > 100 µM |  | > 100 µM |  | > 100 µM |  | > 100 µM |  | > 100 µM |  | > 100 µM |  | > 100 µM |  | > 100 µM
O=C(CCCCCNC1=CC(=O)c2ccccc2C1=O)NCCC[Te]c1ccccc1 | 0.416 µM | 1.36 µM | 0.259 µM | 0.928 µM | 0.3 µM | 1.4 µM | 2.21 µM | 4.21 µM | 0.258 µM | 0.746 µM | 0.335 µM | 1.23 µM | 0.446 µM |  | 0.291 µM | 1.04 µM | 0.359 µM | 1.41 µM | 1.32 µM | 3.37 µM
CCCCCCCCn1ccc2cc(NC(=O)Cn3cc(CN4CCC(C)CC4)nn3)ccc21 | 1.82 µM | 3.46 µM | 1.67 µM | 3.66 µM | 1.64 µM | 3.05 µM | 1.66 µM | 3.12 µM | 2.02 µM | 5.55 µM | 1.75 µM | 3.83 µM | 1.86 µM | 3.81 µM | 2.06 µM | 4.82 µM | 1.82 µM | 3.53 µM | 1.88 µM | 3.37 µM
O=c1c(-c2ccc3c(c2)OCO3)coc2c(CO)c(O)ccc12 | 20.9 µM | 45.5 µM | 2.79 µM | 8.81 µM | 1.28 µM | 3.41 µM | 1.57 µM | 3.47 µM | 30.2 µM | > 100 µM | 1.81 µM | 4.46 µM | 4.42 µM | 30.5 µM | 3.64 µM | 53.6 µM | 1.96 µM | 4.41 µM | 1.66 µM | 3.59 µM
COc1cc(-c2nccc3[nH]c(-c4cccc5[nH]ccc45)nc23)cc(OC)c1OC | < 0.01 µM | < 0.01 µM | 0.0186 µM | 22 µM | < 0.01 µM | 5.98 µM | 2.71 µM | 15.9 µM | < 0.01 µM | 13.2 µM | 4.06 µM | 22.5 µM | < 0.01 µM | 14.1 µM | < 0.01 µM | 2.91 µM | < 0.01 µM | 16 µM | < 0.01 µM | 20.9 µM
O=C1c2ccccc2C(=O)c2c(NCCNCCO)ccc(NCCNCCO)c21 | 1.01 µM and 1.27 µM and 0.724 µM | 3 µM and 5.1 µM and 2.64 µM | 1.97 µM and 3.65 µM | 10.4 µM and 26.3 µM | 0.426 µM and 0.941 µM and 0.545 µM | 4.19 µM and 6.13 µM and 6.12 µM | 1.6 µM and 1.18 µM and 1.21 µM | 4.97 µM and 6.88 µM and 3.85 µM | 0.151 µM and 0.142 µM and 0.167 µM | 59.7 µM and 11.5 µM | 0.232 µM and 0.281 µM and 0.47 µM | 2.24 µM and 3.35 µM and 5.4 µM | 0.349 µM and 0.718 µM and 0.821 µM | 6.5 µM and 6.81 µM and 6.08 µM | 1.49 µM and 3.37 µM and 1.8 µM | 12.2 µM and 33 µM and 10.9 µM | 0.276 µM and 0.257 µM and 0.36 µM | 2.61 µM and 3.34 µM and 3.76 µM | 1.03 µM and 1.2 µM and 1.06 µM | 4.25 µM and 4.33 µM and 2.97 µM
COc1cccc(C(C#N)NC23CC4CC(CC(C4)C2)C3)c1 (centres undefined) |  | > 100 µM |  | > 100 µM |  | > 100 µM |  | > 100 µM |  | > 100 µM |  | > 100 µM |  | > 100 µM |  | > 100 µM |  | > 100 µM |  | > 100 µM
Cc1ccc(C)c(NC(=O)C(=O)CC(=O)c2cccc3ccccc23)c1 |  | > 100 µM |  | > 100 µM |  | > 100 µM |  | > 100 µM |  | > 100 µM |  | > 100 µM |  | > 100 µM |  | > 100 µM |  | > 100 µM |  | > 100 µM
C=C1C(=O)O[C@H]2[C@H]1CC/C(COC(=O)c1cccc3ccccc13)=C\CC[C@@]1(C)O[C@@H]21 | 1.64 µM | 3.16 µM | 1.81 µM | 3.94 µM | 1.35 µM | 2.8 µM | 1.76 µM | 3.66 µM | 2.95 µM | 12.8 µM | 1.29 µM | 2.83 µM | 1.7 µM | 5.42 µM | 1.35 µM | 4.54 µM | 1.6 µM | 3.38 µM | 1.47 µM | 2.94 µM
CCOC(=O)C/C(N)=C(\C#N)C(=O)OCC |  | > 100 µM |  | > 100 µM |  | > 100 µM |  | > 100 µM |  | > 100 µM |  | > 100 µM |  | > 100 µM |  | > 100 µM |  | > 100 µM |  | > 100 µM
O=C(O)CN(CC(=O)O)c1ccccc1 |  | > 100 µM |  | > 100 µM |  | > 100 µM |  | > 100 µM |  | > 100 µM |  | > 100 µM |  | > 100 µM |  | 92.1 µM |  | > 100 µM |  | > 100 µM
O=S1c2ccccc2N=C(c2ccc3ccccc3c2)CC1c1ccccc1F (centres undefined) |  | > 100 µM |  | > 100 µM |  | > 100 µM |  | > 100 µM |  | > 100 µM |  | > 100 µM |  | > 100 µM |  | > 100 µM |  | > 100 µM |  | > 100 µM
COc1ccc(/C=c2\sc3nnc(CCC(=O)Nc4cccc(C(F)(F)F)c4)n3c2=O)cc1 |  | > 100 µM |  | > 100 µM |  | > 100 µM |  | > 100 µM |  | > 27.4 µM |  | > 100 µM |  | > 100 µM |  | > 95.5 µM |  | > 100 µM |  | > 100 µM
S=C(Nc1ccc(Cl)cc1)SC1CCCCC1 |  | > 100 µM |  | 47 µM |  | 42.8 µM |  | 85.9 µM |  | 92.4 µM |  | > 100 µM |  | > 100 µM |  | > 100 µM |  | 84.9 µM |  | 28.8 µM
COc1ccc(C2=NNC(c3cc(Cc4ccc(O)c(C5CC(c6ccc(OC)cc6)=NN5)c4)ccc3O)C2)cc1 (centres undefined) | 19.4 µM | > 100 µM | 23.3 µM | > 100 µM | 7.38 µM | 32.3 µM | 48.9 µM | > 100 µM | 17.8 µM | > 100 µM | 6.08 µM | > 100 µM | 6.36 µM | > 100 µM | 9.89 µM | > 100 µM | 17.9 µM | > 100 µM | 10.6 µM | 99.6 µM
COc1ccccc1N(C(C)=O)C1=C(Cl)C(=O)c2ccccc2C1=O | 1.51 µM | 2.84 µM | 0.751 µM | 6.95 µM | 2.29 µM | 8.08 µM | 1.66 µM | 3.2 µM | 2.94 µM | > 25.1 µM | 1.51 µM | 6.01 µM | 2.72 µM | > 32.2 µM | 0.833 µM | 3.96 µM | 3.19 µM | 12.5 µM | 0.502 µM | 2.92 µM
